Measurements from US20110230476A1, “PI3 KINASE INHIBITORS AND USES THEREOF” (AVILA THERAPEUTICS, INC., priority 2009, published 2011).
pEC50, pIC50: −log10 of the molar value. Entries after “also recorded” stand apart in the source; their conditions may differ.

Legend:
[1] = tested on: Phospho-Akt(Ser473); test: Dose response in SKOV3 cells as determined by in-cell Western; assay type: cell-based; details: Homo sapiens, SK-OV-3; SKOV3 cells, 1 hr; read-out: pAKT Inhibition in cell Western
How it was run: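 SKOV3 cells treated with compound for 1 hr, then formaldehyde-fixed, permeabilised and stained overnight for phospho-Akt(Ser473) with anti-tubulin as a reference. Infrared secondary antibodies read at 680 and 800 nm channels by in-cell Western imaging.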

[2] = tested on: Phospho-Akt(Ser473); test: Dose response in SKOV3 cells as determined by Western blot; assay type: cell-based; details: Homo sapiens, SK-OV-3, 1 hr, Phospho-Akt normalized to total Akt, read-out: Immunoblot
Protocol: Dose Response in SKOV3 Cells as Determined by Western Blot
SKOV3 cells were plated in SKOV3 Growth Media (DMEM supplemented with 10% FBS and pen/strep) at a density of 4×10^5 cells per well of 12 well plates. Twenty four hours later the media was removed and replaced with 1 ml media containing test compound and 0.1% DMSO and cells were returned to the incubator for 1 hr. At the end of the hour, the media was removed and the cells were washed with PBS, then lysed and scraped into 30 ul of Cell Extraction Buffer (Biosource, Camarillo, Calif.) plus Complete Protease Inhibitor and PhosStop Phosphatase Inhibitor (Roche, Indianapolis, Ind.).
Cell debris was spun down at 13,000×g for 1 minute and the supernatant was taken as the cell lysate. Protein concentration of the lysate was determined by BCA Assay (Pierce Biotechnology, Rockford, Ill.) and 50 ug of protein was loaded per well onto a NuPAGE Novex 4-12% Bis-Tris gel (Invitrogen, Carlsbad, Calif.) then transferred to Immobilon PVDF-FL (Millipore, Billerica, Mass.).
The blot was blocked in Odyssey Blocking Buffer (Li-Cor Biosciences, Lincoln, Nebr.) for 1 hr then incubated overnight at 4° C. with mouse anti-Akt (#2920) and rabbit anti-Phospho-Akt(Ser473) (#9271)(Cell Signaling Technology, Boston, Mass.) antibodies, both diluted 1:1000 in PBS/Odyssey Buffer (1:1)+0.1% Tween-20. The blots were washed 3 times 5 minutes in PBS+0.2% Tween-20 then incubated for 1 hr at room temperature with fluorescently labeled secondary antibodies (Li-Cor) diluted 1:10000 in PBS/Odyssey Buffer (1:1)+0.1% Tween-20.
The blots were washed 2 times for 5 minutes in PBS+0.2% Tween-20, once in distilled water, then scanned on an Odyssey machine (Li-Cor). Band intensity was determined using the Odyssey software and Phopho-Akt signal was normalized to total Akt within samples, then expressed as a percentage of the untreated Phospho-Akt signal.

[3] = target: T1, PI3Kα (p110α/p85α) (Homo sapiens, UniProt P42336); test: HTRF assay, potency against active PI3Kα; assay type: biochemical; details: for pIC50: HTRF, [ATP]=50 μM, [di-C8-PIP2]=10 μM, 30 min pre-incubation, read-out: PI3Kα Inhibition
T1 construct: purchased BPS Bioscience (San Diego, Calif.) or Millipore (Billerica, Mass.)
How it was run: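 IC50 came from a variable-slope fit of % inhibition, calculated from the HTRF emission ratio relative to wells with and without enzyme. Reactions with the active enzyme complex ran 30-60 minutes at 25 °C after ATP addition before stop and detection reagents.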

[4] = target: T2, PI3Kβ (p110β/p85α) (Homo sapiens, UniProt P42338); test: HTRF assay, potency against active PI3Kβ; assay type: biochemical; details: [ATP]=50 μM, [di-C8-PIP2]=10 μM, 30 min pre-incubation, read-out: PI3Kβ Inhibition
T2 construct: purchased BPS Bioscience (San Diego, Calif.) or Millipore (Billerica, Mass.)
Protocol: Homogeneous Time Resolved Fluorescence (HTRF) Assay Protocol for Potency Assessment Against the Active Forms of PI3Kα, PI3Kβ, and PI3Kγ
The mechanics of the assay platform are best described by the vendor (Millipore, Billerica, Mass.) on their website at the following URL: www.millipore.com/coa/tech1/74jt4z.
Briefly, Stop solution (Stop A, #33-007 and Stop B, #33-009; 3:1 ratio) and Detection Mix (from DMC, #33-015 with DMA, #33-011 and DMB, #33-013; 18:1:1 ratio) were prepared as recommended by the manufacturer about 2 hrs prior to use. […] Lipid kinase reactions were started with the addition of 5 μL of ATP solution, mixed for 15 sec on a rotary plate shaker and incubated for 30-60 minutes at 25° C. Next, reactions were stopped with a 5 μL addition of Stop solution immediately followed by a 5 μL volume of Detection Mix. […] At the conclusion of each assay, the HTRF ratio from fluorescence emission values for each well was calculated and % Inhibition determined from averaged controls wells (+/−PI3K enzyme). % Inhibition values for each compound were then plotted against inhibitor concentration to estimate IC50 from log [Inhibitor] vs Response, Variable Slope model in GraphPad Prism from GraphPad Software (San Diego, Calif.).

[5] = tested on: SKOV3 cells; test: GI50 determinations in SKOV3 cells; assay type: cell-based; details: Homo sapiens, SK-OV-3; SKOV3 cells, 96 hours, Cell Titer Glo
Protocol: GI50 Determinations in SKOV3 Cells
A standard curve ranging from 10,000 to 50,000 cells was set up in a separate plate and allowed to adhere to the plate for 4-6 hours, at which time the plate was developed using Cell Titer-Glow (Promega, Madison, Wis.) according to manufacturer's instructions.
The next morning, 3-fold compound dilutions ranging from 10,000 nM to 40 nM were prepared in Proliferation Media containing 1% DMSO. 20 ul of each dilution was added to the SKOV3 cells plated the previous day resulting in a dose response curve from 1000 nM to 4 nM. The cells were incubated for 96 hours and then developed with Cell Titer Glo.
The cell numbers at the end of the assay were determined using the standard curve generated at the start of the assay. Growth inhibition was calculated using the following formulas and GI50s were determined by plotting the % growth inhibition vs. Log compound concentration in GraphPad.
%growth=100×(T−T0)/(C−T0)
T=Cell Number at end of assay T0=Cell Number at start of assay (5000) C=Number of cells in DMSO controls at end of assay
%growth inhibition=100−%growth

[6] = target: T3, PI3Kγ (p120γ) (Homo sapiens, UniProt P48736); test: HTRF assay, potency against active PI3Kγ; assay type: biochemical; details: [ATP]=50 μM, [di-C8-PIP2]=10 μM, 30 min pre-incubation, read-out: PI3Kγ Inhibition
T3 construct: purchased BPS Bioscience (San Diego, Calif.) or Millipore (Billerica, Mass.)
How it was run: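 End-point competition HTRF: enzyme (p110β/p85α 0.75 nM; p120γ 2-2.5 nM) with 10 μM di-C8-PIP2 pre-incubated 30 min at 25° C with compound, then 50 μM ATP added for 30-60 min at 25° C. Stopped, detected after 1 and 18 h; IC50 from variable-slope fit.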

[7] = tested on: PI3K; test: PI3K HCT116 cellular assay (Western blot); assay type: cell-based; details: Homo sapiens, HCT-116, HCT116 colon cancer cells, 1 hour incubation, read-out: PI3K Inhibition
Protocol: PI3K HCT116 Cellular Assay
Selected compounds were assayed in HCT116 colon cancer cells. […] Cells were then washed with PBS, lysed and the protein lysates were then recovered and analyzed by Western blot.

[8] = target: T4, PI3Kα (Homo sapiens, UniProt P42336); test: Mass spectrometry of intact PI3Kα (Johns Hopkins), 3 hr incubation; assay type: binding; design: Johns Hopkins; details: 10× fold excess of compound, MALDI
Protocol: (§1) Mass Spectrometry for PI3K
Intact PI3Kα (Johns Hopkins) was incubated for 3 hr at a 10× fold excess of II-a-45 or II-a-49 to protein. Aliquots (3 μL) of the samples were diluted with 10 μL of 0.1% TFA prior to micro C4 ZipTipping directly onto the MALDI target using Sinapinic acid as the desorption matrix (10 mg/ml in 0.1% TFA:Acetonitrile 50:50).
Target sequence in this assay (P42336 whole entry): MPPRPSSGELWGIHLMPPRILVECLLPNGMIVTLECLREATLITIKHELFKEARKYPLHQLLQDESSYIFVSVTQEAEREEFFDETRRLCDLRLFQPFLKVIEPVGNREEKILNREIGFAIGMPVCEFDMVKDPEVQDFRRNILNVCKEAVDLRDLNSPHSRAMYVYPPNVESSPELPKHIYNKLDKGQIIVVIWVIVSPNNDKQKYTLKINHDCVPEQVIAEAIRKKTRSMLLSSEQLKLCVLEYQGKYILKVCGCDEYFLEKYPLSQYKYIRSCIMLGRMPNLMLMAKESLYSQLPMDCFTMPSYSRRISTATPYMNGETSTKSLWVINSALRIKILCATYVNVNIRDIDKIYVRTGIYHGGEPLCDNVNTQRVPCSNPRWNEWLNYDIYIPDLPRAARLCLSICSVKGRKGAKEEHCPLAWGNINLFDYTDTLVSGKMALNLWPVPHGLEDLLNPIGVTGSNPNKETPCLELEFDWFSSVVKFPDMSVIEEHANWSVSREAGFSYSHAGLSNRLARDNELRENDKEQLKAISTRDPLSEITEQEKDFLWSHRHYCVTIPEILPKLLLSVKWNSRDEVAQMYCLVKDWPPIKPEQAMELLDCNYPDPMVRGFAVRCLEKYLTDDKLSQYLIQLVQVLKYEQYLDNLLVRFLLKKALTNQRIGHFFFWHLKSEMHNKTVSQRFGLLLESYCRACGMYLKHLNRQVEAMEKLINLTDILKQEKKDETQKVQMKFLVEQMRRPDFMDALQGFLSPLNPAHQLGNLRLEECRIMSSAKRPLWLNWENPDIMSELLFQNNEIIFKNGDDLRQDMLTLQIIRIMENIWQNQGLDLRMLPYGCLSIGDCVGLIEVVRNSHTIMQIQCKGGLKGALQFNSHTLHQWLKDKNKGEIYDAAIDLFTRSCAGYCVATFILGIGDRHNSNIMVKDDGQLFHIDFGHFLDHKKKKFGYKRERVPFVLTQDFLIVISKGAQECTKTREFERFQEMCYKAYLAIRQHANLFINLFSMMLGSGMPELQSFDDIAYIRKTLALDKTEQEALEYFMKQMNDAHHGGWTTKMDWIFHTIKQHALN
Target sequence in this assay (P27986 322-600 partner limits assumed): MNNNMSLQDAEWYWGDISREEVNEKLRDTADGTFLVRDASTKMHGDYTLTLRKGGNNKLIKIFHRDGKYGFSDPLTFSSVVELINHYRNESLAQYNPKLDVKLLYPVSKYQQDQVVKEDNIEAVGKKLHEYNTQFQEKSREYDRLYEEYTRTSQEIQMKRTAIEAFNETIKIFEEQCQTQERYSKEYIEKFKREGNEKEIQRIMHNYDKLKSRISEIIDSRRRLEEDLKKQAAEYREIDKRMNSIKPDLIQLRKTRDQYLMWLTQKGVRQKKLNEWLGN

[9] = target: T4, PI3Kα; test: Mass spectrometry of intact PI3Kα (Millipore, 14-602), 1 hr incubation; assay type: binding; design: purchased Millipore 14-602; details: 10× fold excess of compound, MALDI
Protocol: as §1
Target sequence in this assay (P42336 whole entry): as the sequence (P42336 whole entry) above
Target sequence in this assay (P27986 whole entry partner): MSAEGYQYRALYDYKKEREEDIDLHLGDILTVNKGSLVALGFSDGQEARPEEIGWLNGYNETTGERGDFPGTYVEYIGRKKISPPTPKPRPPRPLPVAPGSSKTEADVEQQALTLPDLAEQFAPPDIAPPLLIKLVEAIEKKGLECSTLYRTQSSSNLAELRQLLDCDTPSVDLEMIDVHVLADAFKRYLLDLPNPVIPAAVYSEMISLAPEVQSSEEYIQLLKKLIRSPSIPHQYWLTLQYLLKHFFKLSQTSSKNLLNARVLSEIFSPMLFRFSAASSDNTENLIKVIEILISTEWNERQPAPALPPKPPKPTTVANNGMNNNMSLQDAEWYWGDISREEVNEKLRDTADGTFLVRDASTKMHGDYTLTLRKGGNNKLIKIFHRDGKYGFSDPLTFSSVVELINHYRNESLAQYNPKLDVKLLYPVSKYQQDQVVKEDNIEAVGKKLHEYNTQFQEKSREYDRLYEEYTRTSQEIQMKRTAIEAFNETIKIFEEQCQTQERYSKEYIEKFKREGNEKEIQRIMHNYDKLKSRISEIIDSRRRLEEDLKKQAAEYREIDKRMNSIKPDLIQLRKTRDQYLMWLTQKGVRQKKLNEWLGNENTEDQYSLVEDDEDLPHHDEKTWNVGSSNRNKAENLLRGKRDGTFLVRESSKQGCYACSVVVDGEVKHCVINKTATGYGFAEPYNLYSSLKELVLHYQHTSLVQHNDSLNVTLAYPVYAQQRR
Aliquots (5 μl) of the samples were diluted with 15 μl of 0.2% TFA prior to micro C4 ZipTipping directly onto the MALDI target using Sinapinic acid as the desorption matrix (10 mg/ml in 0.1% TFA:Acetonitrile 50:50).

T3 sequence (P48736 whole entry): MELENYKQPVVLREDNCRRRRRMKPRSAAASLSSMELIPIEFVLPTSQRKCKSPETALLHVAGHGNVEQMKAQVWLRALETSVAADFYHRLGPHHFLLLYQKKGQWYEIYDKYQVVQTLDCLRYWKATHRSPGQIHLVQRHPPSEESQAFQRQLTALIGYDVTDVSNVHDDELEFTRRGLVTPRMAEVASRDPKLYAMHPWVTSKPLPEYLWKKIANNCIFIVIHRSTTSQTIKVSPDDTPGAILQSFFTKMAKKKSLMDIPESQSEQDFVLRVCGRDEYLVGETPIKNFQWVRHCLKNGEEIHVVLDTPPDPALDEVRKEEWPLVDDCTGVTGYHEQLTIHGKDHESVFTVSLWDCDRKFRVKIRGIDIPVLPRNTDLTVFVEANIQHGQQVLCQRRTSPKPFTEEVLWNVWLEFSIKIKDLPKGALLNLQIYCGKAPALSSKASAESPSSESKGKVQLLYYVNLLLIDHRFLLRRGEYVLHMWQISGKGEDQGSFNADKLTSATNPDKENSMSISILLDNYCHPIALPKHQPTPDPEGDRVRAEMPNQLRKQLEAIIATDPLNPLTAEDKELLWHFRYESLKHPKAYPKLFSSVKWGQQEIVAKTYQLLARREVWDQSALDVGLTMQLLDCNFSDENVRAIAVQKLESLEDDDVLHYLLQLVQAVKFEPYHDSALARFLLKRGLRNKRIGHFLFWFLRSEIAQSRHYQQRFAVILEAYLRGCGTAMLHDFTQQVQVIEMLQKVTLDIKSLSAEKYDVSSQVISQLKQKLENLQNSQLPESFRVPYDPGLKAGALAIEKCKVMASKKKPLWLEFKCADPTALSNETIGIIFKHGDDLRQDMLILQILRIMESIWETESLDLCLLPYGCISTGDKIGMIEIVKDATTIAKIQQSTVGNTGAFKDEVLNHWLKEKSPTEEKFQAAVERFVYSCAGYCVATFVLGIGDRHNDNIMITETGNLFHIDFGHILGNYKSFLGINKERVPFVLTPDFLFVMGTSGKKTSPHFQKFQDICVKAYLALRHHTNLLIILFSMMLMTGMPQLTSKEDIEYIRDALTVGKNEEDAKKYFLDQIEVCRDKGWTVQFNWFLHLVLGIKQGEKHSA
T1 sequence (P42336 whole entry): as the sequence (P42336 whole entry) above
T1 sequence (P27986 whole entry partner): as the sequence (P27986 whole entry partner) above
T2 sequence (P42338 whole entry): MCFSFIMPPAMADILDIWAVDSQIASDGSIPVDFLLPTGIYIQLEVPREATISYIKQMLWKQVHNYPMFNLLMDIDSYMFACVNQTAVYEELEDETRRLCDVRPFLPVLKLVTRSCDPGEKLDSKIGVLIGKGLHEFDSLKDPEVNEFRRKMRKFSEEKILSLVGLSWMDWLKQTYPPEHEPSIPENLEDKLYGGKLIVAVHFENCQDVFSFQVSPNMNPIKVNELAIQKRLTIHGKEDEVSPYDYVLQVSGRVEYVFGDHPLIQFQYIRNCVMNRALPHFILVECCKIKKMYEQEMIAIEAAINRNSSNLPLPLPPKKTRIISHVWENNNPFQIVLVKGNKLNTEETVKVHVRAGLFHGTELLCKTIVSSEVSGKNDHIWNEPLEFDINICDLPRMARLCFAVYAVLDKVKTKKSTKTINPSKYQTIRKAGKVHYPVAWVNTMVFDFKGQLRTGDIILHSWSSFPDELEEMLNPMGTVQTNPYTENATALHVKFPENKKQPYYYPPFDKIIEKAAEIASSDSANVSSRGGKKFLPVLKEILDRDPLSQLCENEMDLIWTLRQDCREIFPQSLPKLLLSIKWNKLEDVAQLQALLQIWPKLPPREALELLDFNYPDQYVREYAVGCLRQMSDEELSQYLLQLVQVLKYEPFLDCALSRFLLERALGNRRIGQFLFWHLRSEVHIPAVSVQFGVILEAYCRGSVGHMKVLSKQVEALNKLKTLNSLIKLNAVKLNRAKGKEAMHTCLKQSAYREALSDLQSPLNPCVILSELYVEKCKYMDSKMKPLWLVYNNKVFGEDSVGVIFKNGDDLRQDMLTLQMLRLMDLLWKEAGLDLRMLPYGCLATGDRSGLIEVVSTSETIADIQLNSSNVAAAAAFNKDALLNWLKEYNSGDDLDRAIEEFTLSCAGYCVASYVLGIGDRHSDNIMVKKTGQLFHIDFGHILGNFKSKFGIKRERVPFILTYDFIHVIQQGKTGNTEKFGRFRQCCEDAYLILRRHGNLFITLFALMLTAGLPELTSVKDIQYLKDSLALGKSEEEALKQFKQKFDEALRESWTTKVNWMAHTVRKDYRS
T2 sequence (P27986 whole entry partner): as the sequence (P27986 whole entry partner) above

Structure (SMILES)	pEC50 [1]	pIC50 [3]	pIC50 [4]	pIC50 [6]	pEC50 [7]	covalent modification of PI3Kα [8]	also measured
CC(C)=CC(=O)CCC(=O)N1CCN(C(=O)c2cc3nc(-c4cccc5[nH]ncc45)nc(N4CCOCC4)c3s2)CC1 [II-a-160, 1-(4-(2-(1H-indazol-4-yl)-4-morpholinothieno[3,2-d]pyrimidine-6-carbonyl)piperazin-1-yl)-6-methylhept-5-ene-1,4-dione]		6.00 to 7.00	< 6.00				GI50 [5]: 10 to 100 nM
C/C=C/C(=O)CCC(=O)N1CC=C(c2cc3nc(-c4cccc(O)c4)nc(N4CCOCC4)c3s2)CC1 [II-a-45, (E)-1-(4-(2-(3-hydroxyphenyl)-4-morpholinothieno[3,2-d]pyrimidin-6-yl)-5,6-dihydropyridin-1(2H)-yl)hept-5-ene-1,4-dione]	≥ 8.00	> 8.00		6.00 to 7.00	6.30 to 7.00	covalent modification; also recorded: complete modification	positive mass shift of PI3Kα [8]: 563 Da
O=C(/C=C/c1ccccc1)CCC(=O)N1CCN(Cc2cc3nc(-c4cccc5[nH]ncc45)nc(N4CCOCC4)c3s2)CC1 [II-a-116, (E)-1-(4-((2-(1H-indazol-4-yl)-4-morpholinothieno[3,2-d]pyrimidin-6-yl)methyl)piperazin-1-yl)-6-phenylhex-5-ene-1,4-dione]	7.00 to 8.00	7.00 to 8.00	< 6.00				pEC50 [2]: 7.00 to 8.00
C=C(C)C(=O)CCC(=O)NCC(=O)N1CCN(Cc2cc3nc(-c4cccc5[nH]ncc45)nc(N4CCOCC4)c3s2)CC1 [II-a-33, N-(2-(4-((2-(1H-indazol-4-yl)-4-morpholinothieno[3,2-d]pyrimidin-6-yl)methyl)piperazin-1-yl)-2-oxoethyl)-5-methyl-4-oxohex-5-enamide]		7.00 to 8.00		< 6.00	7.00 to 7.70	completely modify	
CC(C)=CC(=O)CCCC(=O)N1CC=C(c2cc3nc(-c4cnc(N)nc4)nc(C4=CCOCC4)c3s2)CC1 [II-a-169]		7.00 to 8.00	< 6.00	6.00 to 7.00			
C=CC(=O)Nc1ccc(CC(=O)N2CCN(c3cc(-c4cnc(N)nc4)nc(N4CCOCC4)c3)CC2)cc1 [XII-54]	6.00 to 7.00	6.00 to 7.00					covalent modification of PI3Kα [9]: covalent modification; mass shift of PI3Kα [9]: 542 Da; mass shift of PI3Kα, per cent in brackets [9]: 103%

Continued, in another order:

pEC50 [1]	pIC50 [3]	pIC50 [4]	pIC50 [6]	pEC50 [7]	covalent modification of PI3Kα [8]	Structure (SMILES)	also measured
≥ 8.00	7.00 to 8.00	6.00 to 7.00				C/C=C/C(=O)CCC(=O)N1CCN(Cc2cc3nc(-c4cnc(N)nc4)nc(N4CCOCC4)c3s2)CC1 [II-a-112, (E)-1-(4-((2-(2-aminopyrimidin-5-yl)-4-morpholinothieno[3,2-d]pyrimidin-6-yl)methyl)piperazin-1-yl)hept-5-ene-1,4-dione]	pEC50 [2]: 7.00 to 8.00
6.00 to 7.00	> 8.00		< 6.00	7.00 to 7.70	completely modify	C/C=C/C(=O)CCC(=O)NCC(=O)N1CCN(Cc2cc3nc(-c4cccc(O)c4)nc(N4CCOCC4)c3s2)CC1 [II-a-37, (E)-N-(2-(4-((2-(3-hydroxyphenyl)-4-morpholinothieno[3,2-d]pyrimidin-6-yl)methyl)piperazin-1-yl)-2-oxoethyl)-4-oxohept-5-enamide]	
	7.00 to 8.00		< 6.00		completely modify	CC(C)/C=C/C(=O)CCC(=O)N1CCN(Cc2cc3nc(-c4cccc5[nH]ncc45)nc(N4CCOCC4)c3s2)CC1 [II-a-54, (E)-1-(4-((2-(1H-indazol-4-yl)-4-morpholinothieno[3,2-d]pyrimidin-6-yl)methyl)piperazin-1-yl)-7-methyloct-5-ene-1,4-dione]	
7.00 to 8.00	7.00 to 8.00					C=CC(=O)Nc1ccc(CC(=O)N2CC=C(c3cc(-c4cnc(N)nc4)nc(N4CCOCC4)c3)CC2)cc1 [XII-51, N-(4-(2-(4-(2-(2-aminopyrimidin-5-yl)-6-morpholinopyridin-4-yl)-5,6-dihydropyridin-1(2H)-yl)-2-oxoethyl)phenyl)acrylamide]	covalent modification of PI3Kα [9]: similarly modify
	> 8.00		< 6.00	6.30 to 7.00	completely modify	C/C=C/C(=O)CCC(=O)NCC(=O)N1CCN(Cc2cc3nc(-c4cccc5[nH]ncc45)nc(N4CCOCC4)c3s2)CC1 [II-a-16, (E)-N-(2-(4-((2-(1H-indazol-4-yl)-4-morpholinothieno[3,2-d]pyrimidin-6-yl)methyl)piperazin-1-yl)-2-oxoethyl)-4-oxohept-5-enamide]	times more potent than its reversible counterpart II^R-a-16 ([3]; PI3Kα HTRF assay): about 35 times
